Test results as given in article PMC3950497 (Advances in Pharmacological Sciences, 2014).
Read-outs that look alike come from different tables or passages of the source.

Legend:
[1] = format: in vivo, rabbit; details: for Measured mean concentration of stephaglabrin in plasma: i.m. stephaglabrine sulfate 0.1 mg/kg single dose
Experimental: The selected rabbits were administrated intramuscular with stephaglabrine sulfate at doses 0.1 mg/kg as it was established before. Each animal received a single dose.
Quantitative analysis was acquired in SRM (selected reactions monitoring) mode on Agilent 6490 triple quadrupole mass spectrometer (Agilent, USA) operated in the positive mode and equipped with Jet Stream ESI ion source. Stepharine was detected in the scheduled selected reaction monitoring (SRM) with unit resolution at both first (Q1) and third (Q3) quadrupoles. The retention time point of stepharine was determined as 9.8 with isolation width of 1 minute for the scheduled SRM method application. The optimal conditions of the analysis were achieved as follows: capillary voltage was −4500 V, nozzle voltage was set at −1200 V, flow rate of drying gas (N2) was 16 L/min, flow rate of sheath gas (N2) was 8 L/min, temperature of drying gas was set at 340°C, temperature of sheath gas was set at 290°C, and nebulizer gas was operated at 20 psi. The transitions for protonated stepharine [M+H]^+ 298.4 → 161.2, 192.1, 238.2 were selected for SRM analysis. The isolation window for the fragment ions was set at 0.27 amu, the optimum fragmentor voltage was adjusted to 310 V and collision energy −19 eV. All the samples including calibration points were analyzed in three replications. 30 μL of the samples was injected and loaded on chromatographic column. Calibration was performed on standard samples solution prepared in 20% acetonitrile with concentration of stepharine from 10^−4 μg/mL to 100 μg/mL. Chromatographic separation was performed on Thermo Hypersil-Keystone ODS column (Thermo Scientific, USA) 100 × 2.1 mm, 5 μm particle size, at flow rate of 200 μL/min and with the following elution conditions: loading onto the column at maintained 20% of mobile phase B for 3 minutes, increasing the gradient to 50% of B at 5 minutes following increasing the gradient to 100% of mobile phase B at 15 minutes. The column was washed and maintained at 100% mobile phase B from 15 to 22 minutes and the composition was decreased to 20% of solvent B at 23 minute. The column was reequilibrated at starting conditions of solvent A-solvent B system ([…], v/v) for 10 minutes at flow 200 μL/min.
0.5 mL of blood samples from each animal was collected from ear vein in the tubes with EDTA before administration and at 15, 30, 60, 90, 120, 180, 480, 720, and 1440 minutes after drug ingestion. Blood samples were immediately put on ice and centrifuged at 5000 g for 10 minutes at 4°C within one hour after blood collection. The obtained plasma was placed in sterile tube and kept at −20°C until analysis.
Plasma proteins were precipitated with acetonitrile. For this purpose, two volumes of acetonitrile were added to 100 μL of rabbit plasma into 1.5 mL plastic tube and 30% ammonia hydroxide was added to adjust the pH to 10. After vortex-mixing for 15 minutes at ambient temperature one volume of chloroform was added three times consequently for 2 hours and incubated at 30°C under regular stirring at 900 rpm at each occasion. The first fraction of upper organic layer was collected after 2 hours of incubation, the second and the third fractions of chloroform extract were collected after additional 30 and 60 minutes of incubation, respectively. The collected fractions were combined and transferred to a new tube and dried under vacuum at 30°C. The resulting pellet was resuspended in 100 μL of 20% water-acetonitrile solution and centrifuged at 14000 rpm for 15 minutes immediately before use. The obtained solution was used for LC-MS analysis. […]

[2] = format: physicochemical
Experimental: Freeze-thaw stability of stephaglabrine sulfate solution was evaluated because samples were stored at −20°C. The stability of stephaglabrine pool solutions (in water-acetonitrile 20%) at concentrations of 10 μg/mL, 50 μg/mL, and 100 μg/mL was evaluated after three cycles of overnight freezing following 3 hours of bench thaw at ambient temperature. The loss of stepharine was evaluated by comparison with freshly prepared standard solutions of the same concentrations. Loss of 10% and less was accepted.

COc1cc2c3c(c1OC)C1(C=CC(=O)C=C1)C[C@@H]3NCC2 [stepharine]
time of maximum concentration (C max) ([1]; all rabbits, i.m. 0.1 mg/kg stephaglabrine sulfate): 90 min | Measured mean concentration of stephaglabrin in plasma ([1]; rabbit ST01, 15 min after administration): 8.1 ± 0.6 ng/mL | Measured mean concentration of stephaglabrin in plasma ([1]; rabbit ST01, 30 min after administration): 9.4 ± 0.5 ng/mL | Measured mean concentration of stephaglabrin in plasma ([1]; rabbit ST01, 60 min after administration): 10.0 ± 0.3 ng/mL | Measured mean concentration of stephaglabrin in plasma ([1]; rabbit ST01, 90 min after administration): 13.9 ± 0.9 ng/mL | Measured mean concentration of stephaglabrin in plasma ([1]; rabbit ST01, 120 min after administration): 5.8 ± 0.1 ng/mL | Measured mean concentration of stephaglabrin in plasma ([1]; rabbit ST01, 180 min after administration): 3.8 ± 0.1 ng/mL | Measured mean concentration of stephaglabrin in plasma ([1]; rabbit ST01, 480 min after administration): 1.8 ± 0.02 ng/mL | Measured mean concentration of stephaglabrin in plasma ([1]; rabbit ST01, 720 min after administration): 1.5 ± 0.02 ng/mL | Measured mean concentration of stephaglabrin in plasma ([1]; rabbit ST01, 1440 min after administration): 0 ng/mL | Measured mean concentration of stephaglabrin in plasma ([1]; rabbit ST02, 15 min after administration): 7.9 ± 0.2 ng/mL | Measured mean concentration of stephaglabrin in plasma ([1]; rabbit ST02, 30 min after administration): 16.5 ± 0.8 ng/mL | Measured mean concentration of stephaglabrin in plasma ([1]; rabbit ST02, 60 min after administration): 29.3 ± 2.2 ng/mL | Measured mean concentration of stephaglabrin in plasma ([1]; rabbit ST02, 90 min after administration): 33.9 ± 2.8 ng/mL | Measured mean concentration of stephaglabrin in plasma ([1]; rabbit ST02, 120 min after administration): 10.4 ± 0.5 ng/mL | Measured mean concentration of stephaglabrin in plasma ([1]; rabbit ST02, 180 min after administration): 7.8 ± 0.3 ng/mL | Measured mean concentration of stephaglabrin in plasma ([1]; rabbit ST02, 480 min after administration): 1.2 ± 0.02 ng/mL | Measured mean concentration of stephaglabrin in plasma ([1]; rabbit ST02, 720 min after administration): 1.3 ± 0.01 ng/mL | Measured mean concentration of stephaglabrin in plasma ([1]; rabbit ST02, 1440 min after administration): 0 ng/mL | Measured mean concentration of stephaglabrin in plasma ([1]; rabbit ST03, 15 min after administration): 6.8 ± 0.4 ng/mL | Measured mean concentration of stephaglabrin in plasma ([1]; rabbit ST03, 30 min after administration): 14.8 ± 0.2 ng/mL | Measured mean concentration of stephaglabrin in plasma ([1]; rabbit ST03, 60 min after administration): 19.5 ± 0.6 ng/mL | Measured mean concentration of stephaglabrin in plasma ([1]; rabbit ST03, 90 min after administration): 20.4 ± 1.7 ng/mL | Measured mean concentration of stephaglabrin in plasma ([1]; rabbit ST03, 120 min after administration): 6.5 ± 0.1 ng/mL | Measured mean concentration of stephaglabrin in plasma ([1]; rabbit ST04, 15 min after administration): 5.7 ± 0.2 ng/mL | Measured mean concentration of stephaglabrin in plasma ([1]; rabbit ST04, 30 min after administration): 7.3 ± 0.3 ng/mL | Measured mean concentration of stephaglabrin in plasma ([1]; rabbit ST04, 60 min after administration): 9.5 ± 0.5 ng/mL | Measured mean concentration of stephaglabrin in plasma ([1]; rabbit ST04, 90 min after administration): 14.2 ± 0.2 ng/mL | Measured mean concentration of stephaglabrin in plasma ([1]; rabbit ST04, 120 min after administration): 9.7 ± 0.2 ng/mL | Measured mean concentration of stephaglabrin in plasma ([1]; rabbit ST04, 180 min after administration): 2.8 ± 0.2 ng/mL | Measured mean concentration of stephaglabrin in plasma ([1]; rabbit ST04, 480 min after administration): 0.7 ± 0.01 ng/mL | Measured mean concentration of stephaglabrin in plasma ([1]; rabbit ST04, 720 min after administration): 0.6 ± 0.01 ng/mL | Measured mean concentration of stephaglabrin in plasma ([1]; rabbit ST04, 1440 min after administration): 0 ng/mL | Measured mean concentration of stephaglabrin in plasma ([1]; rabbit ST05, 15 min after administration): 6.3 ± 0.2 ng/mL | Measured mean concentration of stephaglabrin in plasma ([1]; rabbit ST05, 30 min after administration): 12.7 ± 0.3 ng/mL | Measured mean concentration of stephaglabrin in plasma ([1]; rabbit ST05, 60 min after administration): 18.5 ± 0.2 ng/mL | Measured mean concentration of stephaglabrin in plasma ([1]; rabbit ST05, 90 min after administration): 21.2 ± 0.2 ng/mL | Measured mean concentration of stephaglabrin in plasma ([1]; rabbit ST05, 120 min after administration): 5.1 ± 0.3 ng/mL | Measured mean concentration of stephaglabrin in plasma ([1]; rabbit ST05, 180 min after administration): 2.9 ± 0.07 ng/mL | Measured mean concentration of stephaglabrin in plasma ([1]; rabbit ST05, 480 min after administration): 1.4 ± 0.08 ng/mL | Measured mean concentration of stephaglabrin in plasma ([1]; rabbit ST05, 720 min after administration): 0.9 ± 0.04 ng/mL | Measured mean concentration of stephaglabrin in plasma ([1]; rabbit ST05, 1440 min after administration): 0 ng/mL | Measured mean concentration of stephaglabrin in plasma ([1]; rabbit ST06, 15 min after administration): 7.0 ± 0.3 ng/mL | Measured mean concentration of stephaglabrin in plasma ([1]; rabbit ST06, 30 min after administration): 13.9 ± 0.2 ng/mL | Measured mean concentration of stephaglabrin in plasma ([1]; rabbit ST06, 60 min after administration): 20.4 ± 0.2 ng/mL | Measured mean concentration of stephaglabrin in plasma ([1]; rabbit ST06, 90 min after administration): 25.8 ± 0.1 ng/mL | Measured mean concentration of stephaglabrin in plasma ([1]; rabbit ST06, 120 min after administration): 7.6 ± 0.09 ng/mL | Measured mean concentration of stephaglabrin in plasma ([1]; rabbit ST06, 180 min after administration): 3.3 ± 0.08 ng/mL | Measured mean concentration of stephaglabrin in plasma ([1]; rabbit ST06, 480 min after administration): 1.2 ± 0.08 ng/mL | Measured mean concentration of stephaglabrin in plasma ([1]; rabbit ST06, 720 min after administration): 0.7 ± 0.02 ng/mL | Measured mean concentration of stephaglabrin in plasma ([1]; rabbit ST06, 1440 min after administration): 0 ng/mL | presence in plasma samples after 24 hours ([1]; rabbits, 24 hours after intramuscular administration): not found | apparent volume of distribution ([1]; rabbits, estimated as ratio of clearance to elimination rate constant, data not shown): extensively distributed throughout the body | loss during three freeze-thaw cycles ([2]; solutions in water-acetonitrile 20% at 10, 50 and 100 μg/mL, overnight freezing, 3 hours bench thaw at ambient temperature): less than 6% | mean sample stability ([2]; three freeze-thaw cycles, solutions in water-acetonitrile 20%): 94.6%
